According to PubChem BioAssay AID248 (DTP/NCI, 2004):
Where “and” joins values, the source holds several entries; their conditions need not be identical. Equal entries are not always repeated. Inconclusive results and toxic doses are left out. Rule as the data show it: active = T/C of 150% or more; inactive = T/C below 125%.

System: L1210 leukemia ip in BDF1 mice, survival T/C
Experiment: NCI In Vivo Anticancer Drug Screen. Data for tumor model L1210 Leukemia (intraperitoneal) in B6D2F1 (BDF1) mice
Settings: endpoint: mean survival time, higher = longer survival
Procedure, shortened: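 Tumor was transplanted into mice, which were then dosed with test compound or vehicle alone. Survival was recorded for each group, and the treated figure was expressed relative to the control figure.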

[1] = dose: 100.0 mg/kg/injection, schedule: Q04DX003 (ip), vehicle: saline with Tween-80
[2] = dose: 200.0 mg/kg/injection, schedule: Q04DX003 (ip), vehicle: saline with Tween-80
[3] = dose: 400.0 mg/kg/injection, schedule: Q04DX003 (ip), vehicle: saline with Tween-80
[4] = dose: 100.0 mg/kg/injection, schedule: Q01DX001 (ip), vehicle: saline
[5] = dose: 200.0 mg/kg/injection, schedule: Q01DX001 (ip), vehicle: saline
[6] = dose: 100.0 mg/kg/injection, schedule: Q04DX003 (ip), vehicle: Klucel (hydroxypropylcellulose) (HPC)
[7] = dose: 200.0 mg/kg/injection, schedule: Q04DX003 (ip), vehicle: Klucel (hydroxypropylcellulose) (HPC)
[8] = dose: 100.0 mg/kg/injection, schedule: Q01DX009 (ip), vehicle: Klucel (hydroxypropylcellulose) (HPC)
[9] = dose: 200.0 mg/kg/injection, schedule: Q01DX009 (ip), vehicle: Klucel (hydroxypropylcellulose) (HPC)
[10] = dose: 400.0 mg/kg/injection, schedule: Q01DX001 (ip), vehicle: saline
[11] = dose: 400.0 mg/kg/injection, schedule: Q01DX009 (ip), vehicle: Klucel (hydroxypropylcellulose) (HPC)
[12] = dose: 400.0 mg/kg/injection, schedule: Q04DX003 (ip), vehicle: Klucel (hydroxypropylcellulose) (HPC)
[13] = dose: 100.0 mg/kg/injection, schedule: Q04DX002 (ip), vehicle: Klucel (hydroxypropylcellulose) (HPC)
[14] = dose: 200.0 mg/kg/injection, schedule: Q04DX002 (ip), vehicle: Klucel (hydroxypropylcellulose) (HPC)
[15] = dose: 400.0 mg/kg/injection, schedule: Q04DX002 (ip), vehicle: Klucel (hydroxypropylcellulose) (HPC)

Measured: T/C

CC1CCC(C(C)C)C2(C1)NC(=O)N(CC(=O)O)C2=O (configuration not stated)
inactive: [1] 93 % of control | [2] 100 % of control | [3] 104 % of control

CC(C)C1(NC(=O)C2C=C3c4cccc5[nH]cc(c45)CC3N(C)C2)OC2(O)C3CCCN3C(=O)C(Cc3ccccc3)N2C1=O (configuration not stated)
inactive: dose: 50.0 mg/kg/injection, schedule: Q01DX001 (ip), vehicle: carboxymethylcellulose (CMC) 93 % of control | dose: 50.0 mg/kg/injection, schedule: Q01DX001 (ip), vehicle: other 93 % of control | dose: 100.0 mg/kg/injection, schedule: Q01DX001 (ip), vehicle: carboxymethylcellulose (CMC) 98 % of control | dose: 100.0 mg/kg/injection, schedule: Q01DX001 (ip), vehicle: other 88 % of control | [4] 102 % of control | dose: 200.0 mg/kg/injection, schedule: Q01DX001 (ip), vehicle: other 93 % of control | [5] 96 % of control and 89 % of control | dose: 400.0 mg/kg/injection, schedule: Q01DX001 (ip), vehicle: other 96 % of control

c1ccc(NP2(Nc3ccccc3)=NP(Nc3ccccc3)(Nc3ccccc3)=NP(Nc3ccccc3)(Nc3ccccc3)=N2)cc1
inactive: dose: 75.0 mg/kg/injection, schedule: Q01DX001 (ip), vehicle: saline 96 % of control | [6] 99 % of control | dose: 150.0 mg/kg/injection, schedule: Q01DX001 (ip), vehicle: saline 101 % of control | [7] 89 % of control | dose: 300.0 mg/kg/injection, schedule: Q01DX001 (ip), vehicle: saline 91 % of control

CC1(C)N=C(N)N=C(N)N1c1cccc(CCCCc2cccc(NC(=O)CBr)c2)c1
inactive: dose: 5.0 mg/kg/injection, schedule: Q01DX001 (ip), vehicle: saline 102 % of control | dose: 10.0 mg/kg/injection, schedule: Q01DX001 (ip), vehicle: saline 98 % of control | dose: 20.0 mg/kg/injection, schedule: Q01DX001 (ip), vehicle: saline 98 % of control | dose: 40.0 mg/kg/injection, schedule: Q01DX001 (ip), vehicle: saline 112 % of control

C[C@H]1C[C@@H]2[C@H]([C@@H](O)C[C@@]3(C)[C@H]2CC[C@]3(O)C(=O)CO)[C@@]2(C)C=CC(=O)C=C12
inactive: dose: 6.25 mg/kg/injection, schedule: Q01DX009 (ip), vehicle: Klucel (hydroxypropylcellulose) (HPC) 104 % of control | dose: 12.5 mg/kg/injection, schedule: Q01DX009 (ip), vehicle: Klucel (hydroxypropylcellulose) (HPC) 104 % of control | dose: 12.5 mg/kg/injection, schedule: Q01DX Z (sc), vehicle: water 107 % of control | dose: 25.0 mg/kg/injection, schedule: Q01DX009 (ip), vehicle: Klucel (hydroxypropylcellulose) (HPC) 102 % of control | dose: 25.0 mg/kg/injection, schedule: Q01DX Z (sc), vehicle: water 108 % of control | dose: 50.0 mg/kg/injection, schedule: Q01DX009 (ip), vehicle: Klucel (hydroxypropylcellulose) (HPC) 98 % of control | dose: 50.0 mg/kg/injection, schedule: Q01DX Z (sc), vehicle: water 107 % of control | [8] 107 % of control | dose: 100.0 mg/kg/injection, schedule: Q01DX Z (sc), vehicle: water 110 % of control | [9] 104 % of control | dose: 200.0 mg/kg/injection, schedule: Q01DX Z (sc), vehicle: water 115 % of control

COC(=O)C1=C(N)OC(C)(C)C1c1ccc(Cl)cc1 (configuration not stated)
inactive: [4] 100 % of control | [5] 94 % of control | [10] 97 % of control

Brc1ccc2c(c1)oc1ccccc12
inactive: [8] 102 % of control | [6] 105 % of control | [9] 97 % of control | [7] 107 % of control | [11] 100 % of control | [12] 91 % of control

C1=Nc2c(ccc3ccccc23)CS1
inactive: dose: 100.0 mg/kg/injection, schedule: Q04DX002 (ip), vehicle: other 93 % of control

CCCCCC(=C/c1ccccc1)/C=N/N=C(N)N
inactive: dose: 15.0 mg/kg/injection, schedule: Q01DX Z (ip), vehicle: saline 93 % of control | dose: 30.0 mg/kg/injection, schedule: Q01DX Z (ip), vehicle: saline 104 % of control | dose: 30.0 mg/kg/injection, schedule: Q01DX Z (oral), vehicle: saline 94 % of control | dose: 60.0 mg/kg/injection, schedule: Q01DX Z (ip), vehicle: saline 98 % of control | dose: 60.0 mg/kg/injection, schedule: Q01DX Z (oral), vehicle: saline 90 % of control | dose: 120.0 mg/kg/injection, schedule: Q01DX Z (oral), vehicle: saline 94 % of control

O=C(O)c1ccccc1CBr
inactive: dose: 100.0 mg/kg/injection, schedule: Q01DX005 (ip), vehicle: Klucel (hydroxypropylcellulose) (HPC) 97 % of control | [8] 97 % of control | [13] 96 % of control | [6] 93 % of control | dose: 200.0 mg/kg/injection, schedule: Q01DX005 (ip), vehicle: Klucel (hydroxypropylcellulose) (HPC) 105 % of control | [9] 97 % of control | [14] 100 % of control | [7] 93 % of control | dose: 400.0 mg/kg/injection, schedule: Q01DX005 (ip), vehicle: Klucel (hydroxypropylcellulose) (HPC) 101 % of control | [11] 97 % of control | [15] 93 % of control | [12] 105 % of control

N#Cc1c(O)ccc(O)c1C#N
inactive: [8] 87 % of control | [13] 90 % of control | [9] 87 % of control | [14] 93 % of control | [11] 94 % of control | [15] 96 % of control

O=C(Nc1ccc2c(c1)OCO2)O/N=C\c1cccnc1
inactive: dose: 12.5 mg/kg/injection, schedule: Q01DX009 (ip), vehicle: saline with Tween-80 97 % of control | dose: 25.0 mg/kg/injection, schedule: Q01DX009 (ip), vehicle: saline with Tween-80 105 % of control | dose: 50.0 mg/kg/injection, schedule: Q01DX009 (ip), vehicle: saline with Tween-80 100 % of control | dose: 100.0 mg/kg/injection, schedule: Q01DX009 (ip), vehicle: saline with Tween-80 86 % of control | [1] 100 % of control | dose: 200.0 mg/kg/injection, schedule: Q01DX009 (ip), vehicle: saline with Tween-80 91 % of control | [2] 113 % of control | [3] 111 % of control

CCCCNC(=O)C(C)S(=O)(=O)c1ccc(C)cc1 (configuration not stated)
inactive: [1] 100 % of control | [2] 100 % of control | [3] 98 % of control

CC12CCC(=O)C=C1CCC1C2CCC2(C)C(C(=O)CC(O)(C(F)(F)F)C(F)(F)F)CCC12 (configuration not stated)
inactive: dose: 100.0 mg/kg/injection, schedule: Q01DX001 (ip), vehicle: Klucel (hydroxypropylcellulose) (HPC) 94 % of control | dose: 200.0 mg/kg/injection, schedule: Q01DX001 (ip), vehicle: Klucel (hydroxypropylcellulose) (HPC) 96 % of control | dose: 400.0 mg/kg/injection, schedule: Q01DX001 (ip), vehicle: Klucel (hydroxypropylcellulose) (HPC) 96 % of control

Cc1c(Cl)cccc1NS(=O)(=O)c1ccc(Cl)cc1
inactive: [8] 117 % of control | [6] 102 % of control | [9] 111 % of control | [7] 119 % of control | [11] 101 % of control | [12] 110 % of control

Nc1nc(-c2ccccc2)c(CCCNc2ccc(C(=O)NC(CCC(=O)O)C(=O)O)cc2)c(=O)[nH]1 (configuration not stated)
inactive: dose: 50.0 mg/kg/injection, schedule: Q01DX001 (ip), vehicle: saline 98 % of control | [4] 104 % of control | [1] 106 % of control | [5] 98 % of control | [2] 100 % of control | [10] 101 % of control | [3] 89 % of control
